# According to PMC8495968, “Towards optimizing peptide-based inhibitors of protein–protein interactions: predictive saturation variation scanning (PreSaVS)” (RSC Chemical Biology, 2021):
# Read-outs that look alike come from different tables or passages of the source.
# How the values were obtained:
# [1] = target: T1, hSUMO-1 18-97 (Homo sapiens, UniProt P63165); experiment: Fluorescence anisotropy competition assay, FITC-peg-SIM tracer / SUMO; format: binding; details: competition FA, 50 mM Tris, 150 mM NaCl, 25 nM tracer, 100 nM SUMO, read after 45 min, triplicate
# T1 construct: 18-97; His-TEV (N, cleaved yes); made in house
# T1 sequence (P63165 18-97): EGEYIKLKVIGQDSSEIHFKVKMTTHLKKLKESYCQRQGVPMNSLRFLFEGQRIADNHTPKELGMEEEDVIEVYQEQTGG
# Description: hSUMO-1 18-97 was expressed and purified as previously described from a pet19b His-TEV-SUMO-1 (18-97) construct with cleavage of the tag using TEV protease.4 […]
# Fluorescence anisotropy assays were performed in 384-well plates (Greiner Bio-one). Each experiment was run in triplicate and the fluorescence anisotropy measured using a Perkin Elmer EnVisionTM 2103 MultiLabel plate reader, with excitation at 480 nm (30 nm bandwidth), polarised dichroic mirror at 505 nm and emission at 535 nm (40 nm bandwidth, S and P polarised). All assays were performed in 20 mM Tris, 100 mM NaCl, 0.1 mM DTT, pH 7.5 unless otherwise stated and data analysed following previously published methods.
# Fluorescence anisotropy data was processed as described previously.[2] Briefly. the data from both the P (perpendicular intensity) and S (parallel intensity) channels, resulting from this measurement and corrected by subtracting the corresponding control wells, were used to calculate the intensity and anisotropy for each well following Equations 1 and 2: […]
# For direct titration the average anisotropy (across three experimental replicates) and the standard deviation of these values were then calculated and fit to a logistic model using OriginPro 9.0 to determine the maximum and minimum anisotropies then the fraction bound calculated (Equation 3) and used to determine Kd (equation 4)
# Lb= (r‒rmin)/λ(rmax‒r)+r‒rmin Equation 3
# y= {(k+ x+[ FL])‒√{k+x+[FL] 2‒4x[FL]}}/2 Equation 4 r = anisotropy, I = total intensity, P = perpendicular intensity, S = parallel intensity, G = instrument factor which was set to 1 for all experiments, Lb = fraction ligand bound, λ = […]
# (§1) For competition experiments, the anisotropies were determined as for the direct titration and then plotted against inhibitor concentration and fit (equation 5) to determine the IC50 and error […]
# (§2) y = rmax + (rmin-rmax)/(1+(x/xo)p) Equation 5
# Where xo represents the IC50 […]
# (§3) Competition binding assays:
# (§4) FA competition assays were performed in 384 well plates with the concentration of variant […]
# (§5) with fixed protein and tracer concentrations. FITC-labelled peptide was added to each well to […]
# For control wells, the tracer peptide was replaced with an identical volume of assay buffer.
# The total volume in each well was 60 μL. […]
# [2] = Solubility, qualitative test
# Description: (1 picture or pasted object on this page, not shown here)
# as §1, §2
# Where xo represents the IC50
# Fluorescence anisotropy direct titration assays were performed with protein concentration diluted over 16-24 points using 2-fold dilutions. Followed by addition of tracer peptide was added to the wells. For control wells, the tracer peptide was replaced with an identical volume of assay buffer. Plates were read after 45 minutes.
# as §3, §4, §5
# The total volume in each well was 60 μL. Plates were read after 45 minutes of incubation at […]
# ITC experiments were carried out using a Microcal ITC200i instrument (Malvern) at 25°C in 20 mM Tris, 150 mM NaCl, pH 7.5 buffer. […] Data was analysed using Microcal Origin 8 and fitted to a one-binding site model
# Spectra were recorded on a Chirascan circular dichroism spectropolarimeter (Applied Photophysics), at 20°C, using 1 mm cells and a scan speed of 5 nm/min. […]
# Peptide solubility was assessed using a qualitative test. […]
IC50 [1],maximum solubility / concentration obtained ([2]; qualitative test),maximum solubility / concentration obtained [2],SMILES
14.8 ± 0.7 µM,> 8 mM,,CC[C@H](C)[C@H](NC(=O)[C@@H](NC(=O)[C@H](CCC(=O)O)NC(=O)[C@H](CC(=O)O)NC(=O)[C@H](CCC(=O)O)NC(=O)[C@H](CC(N)=O)NC(=O)[C@H](CC(=O)O)NC(C)=O)C(C)C)C(=O)N[C@H](C(=O)N[C@H](C(=O)N[C@@H](Cc1c[nH]c2ccccc12)C(=O)N[C@@H](CCC(=O)O)C(=O)N[C@@H](CCCCN)C(=O)N[C@@H](CCCCN)C(N)=O)C(C)C)[C@@H](C)CC [SIM2705–2717I2708D]
,,~ 1 mM,CC[C@H](C)[C@H](NC(=O)[C@H](CCC(=O)O)NC(=O)[C@H](CC(N)=O)NC(=O)[C@H](CC(=O)O)NC(C)=O)C(=O)N[C@@H](CCC(=O)O)C(=O)N[C@H](C(=O)N[C@H](C(=O)N[C@H](C(=O)N[C@H](C(=O)N[C@@H](Cc1c[nH]c2ccccc12)C(=O)N[C@@H](CCC(=O)O)C(=O)N[C@@H](CCCCN)C(=O)N[C@@H](CCCCN)C(N)=O)C(C)C)[C@@H](C)CC)[C@@H](C)CC)C(C)C [SIM2705–2717]
